In patent publication US20110172297A1, “Oxopiperdinyl And Pyranyl Sulfonamides and Pharmaceutical Compositions Thereof” (Pfizer Inc, priority 2008, published 2011) one finds EC50 data, which are given here for 19 molecules.

The term EC50 denotes the concentration needed to bring the measured effect to its halfway point.

For the assay, the system named is AMPA receptors. In words: AMPA ES cell FLIPR screen (AMPA Potentiator Assay). The format is cell-based. Particulars: murine ES cell-derived neurons, FLIPR Fluo-4 calcium signal, 32 uM AMPA challenge; values marked * are the geometric mean of 2-9 EC50 determinations. As for the experimental part:
The murine ES cell line used was E14-Sx1-16C, which has a targeted mutation in the Sox1 gene, a neuroectodermal marker, that offers G418 resistance when the Sox1 gene is expressed (Stem Cell Sciences). ES cells were maintained undifferentiated as previously described (Roach). […] ES cells were plated on gelatin-coated dishes (BD Biosciences), the media was changed daily and the cells were dissociated with 0.05% Trypsin EDTA (Invitrogen) every other day.
Embryoid Body Formation: Prior to embryoid body (EB) formation the ES cells were weaned from FBS onto Knockout Serum Replacement (KSR) (Invitrogen). To form EBs, ES cells were dissociated into a single cell suspension, then 3×10^6 cells were plated in bacteriology dishes (Nunc 4014) and grown as a suspension culture in NeuroEB-I medium that consisted of Knockout™ D-MEM (Invitrogen), supplemented with 10% KSR (Invitrogen), 0.2 mM L-Glutamine (Invitrogen), 0.1 mM MEM non-essential amino acids (Invitrogen), 30 μg/ml Gentamicin (Invitrogen), 1000 u/ml ESGRO (Chemicon), 0.1 mM 2-Mercaptoethanl (Sigma) and 150 ng/ml Transferrin (Invitrogen). The plates were put on a Stovall Belly Button shaker in an atmospheric oxygen incubator. The media was changed on day 2 of EB formation with NeuroEB-I and on day 4 with NeuroEB-II (NeuroEB-I plus 1 μg/ml mNoggin [R&D Systems]).
Neuronal Precursor Selection and Expansion: On day 5 of EB formation, EBs were dissociated with 0.05% Trypsin EDTA, and 4×10^6cells/100 mm dish were plated on Laminin coated tissue culture dishes in Neuroll-G418 medium that consisted of a base medium of a 1:1 mixture of D-MEM/F12 supplemented with N2 supplements and NeuroBasal Medium supplemented with B27 supplement and 0.1 mM L-Glutamine (all from Invitrogen). The base medium was then supplemented with 10 ng/ml bFGF (Invitrogen), 1 μg/ml mNoggin, 500 ng/ml SHH—N, 100 ng/ml FGF-8b (R&D Systems), 1 μg/ml Laminin and 200 μg/ml G418 (Invitrogen) for selection of neuronal precursors expressing Sox-1. The plates were put in an incubator that contained 2% Oxygen and were maintained in these conditions. During the 6-day selection period, the Neuroll media was changed daily. On day 6, the surviving neuronal precursor foci were dissociated with 0.05% Trypsin EDTA and the cells were plated at a density of 1.5×10^6 cells/100 mm Laminin coated dish in Neuroll-G418 medium. The cells were dissociated every other day for expansion, and prepared for Cryopreservation at passage 3 or 4. The crypreservation medium contained 50% KSR, 10% Dimethyl Sulfoxide (DMSO) (Sigma) and 40% Neurol-G418I medium. Neuronal precursors were crypreserved at a concentration of 4×10^6 cells/ml and 1 ml/cryovial in a controlled rate freezer overnight then transferred to an ultra-low freezer or liquid nitrogen for long-term storage.
Neuronal Differentiation: Cryopreserved ES cell-derived neuronal precursors were thawed by the rapid thaw method in a 37-degree water-bath. The cells were transferred from the cryovial to a 100 mm Laminin coated tissue culture dish that already contained Neuroll-G418 that had been equilibrated in a 2% Oxygen incubator. The media was changed with fresh Neuroll-G418 the next day. The cells were dissociated every other day as described above for expansion to generate enough cells to plate for the screen. For the screen, the cells were plated into 384-well poly-d-lysine coated tissue culture dishes (BD Biosciences) by the automated SelecT at a cell density of 6K cells/well in differentiation medium Neurolll that contained a 4:1 ratio of the NeuroBasalMedium/B27:D-MEM/F12/N2 supplemented with 1 μM cAMP (Sigma), 200 μM Ascorbic Acid (Sigma), 1 μg/ml Laminin (Invitrogen) and 10 ng/ml BDNF (R&D Systems). The plates were put in an incubator with 2% Oxygen and allowed to complete the differentiation process for 7 days. The cells could then be used over a 5-day period for the high throughput screen.
On the day of the assay, the FLIPR assay may be performed using the following methods: […]

For the molecule `CC(C)S(=O)(=O)N[C@@H]1COCC[C@@H]1c1ccc(-c2ccc(C#N)s2)cc1` [Example 58, N-{(3S,4R)-4-[4-(5-cyano-2-thienyl)phenyl]tetrahydro-2H-pyran-3-yl}propane-2-sulfonamide], the 50% effective concentration (EC50) is above 31.6 µM.
On to `CCOc1ccccc1-c1ccc([C@H]2COCC[C@H]2NS(=O)(=O)C(C)C)cc1` [Example 28, N-[(3R,4R)-3-(2′-ethoxybiphenyl-4-yl)tetrahydro-2H-pyran-4-yl]propane-2-sulfonamide], for which the 50% effective concentration (EC50) was above 31.6 µM.
Regarding `CC(C)S(=O)(=O)N[C@H]1CCOC[C@H]1c1ccc(-c2ccccc2)cc1` [Example 25, N-[(3S,4S)-3-biphenyl-4-yltetrahydro-2H-pyran-4-yl]propane-2-sulfonamide], the EC50 was 0.684 µM.
`CC(C)S(=O)(=O)N[C@@H]1COCC[C@@H]1c1ccc(-c2ccccc2)cc1` [Example 13, N-[(3S,4R)-4-biphenyl-4-yltetrahydro-2H-pyran-3-yl]propane-2-sulfonamide]: the concentration giving a half-maximal response (EC50) is above 31.6 µM.
With `CC(C)S(=O)(=O)N[C@@H]1CCOC[C@@H]1c1ccc(-c2ccc(C#N)cc2)cc1` [Example 30, N-[(3R,4R)-3-(4′-cyanobiphenyl-4-yl)tetrahydro-2H-pyran-4-yl]propane-2-sulfonamide] the figure was above 31.6 µM; with `CC(C)S(=O)(=O)N[C@@H]1COCC[C@H]1c1ccc(-c2ccccc2C#N)cc1` [Example 17, N-[(3S,4S)-4-(2′-cyanobiphenyl-4-yl)tetrahydro-2H-pyran-3-yl]propane-2-sulfonamide], above 31.6 µM; with `CC(C)S(=O)(=O)N[C@@H]1CCOC[C@H]1c1ccc(-c2ccc(C#N)cc2)cc1` [Example 39, N-[(3S,4R)-3-(4′-cyanobiphenyl-4-yl)tetrahydro-2H-pyran-4-yl]propane-2-sulfonamide], above 31.6 µM.
For the molecule `CCOc1ccccc1-c1ccc([C@@H]2COCC[C@H]2NS(=O)(=O)C(C)C)cc1` [Example 35, N-[(3S,4R)-3-(2′-ethoxybiphenyl-4-yl)tetrahydro-2H-pyran-4-yl]propane-2-sulfonamide], the EC50 was 4.57 µM.
Consider `CC(C)S(=O)(=O)N[C@@H]1COCC[C@]1(O)c1ccc(-c2ccccc2)cc1` [Example 4, N-[(3R,4S)-4-biphenyl-4-yl-4-hydroxytetrahydro-2H-pyran-3-yl]propane-2-sulfonamide], for which the concentration for a half-maximal effect (EC50) was above 31.6 µM.
With `CCOc1ccccc1-c1ccc([C@@H]2CCOC[C@@H]2NS(=O)(=O)C(C)C)cc1` [Example 63, N-[(3R,4S)-4-(2′-ethoxybiphenyl-4-yl)tetrahydro-2H-pyran-3-yl]propane-2-sulfonamide], the EC50 is 0.669 µM.
With `CC(C)S(=O)(=O)N[C@H]1COCC[C@H]1c1ccc(-c2ccccc2)cc1` [Example 55, N-[(3R,4S)-4-biphenyl-4-yltetrahydro-2H-pyran-3-yl]propane-2-sulfonamide] the figure was above 31.6 µM; with `CC(C)S(=O)(=O)N[C@@H]1CCOC[C@@H]1c1ccc(-c2ccccc2)cc1` [Example 26, N-[(3R,4R)-3-biphenyl-4-yltetrahydro-2H-pyran-4-yl]propane-2-sulfonamide], above 31.6 µM.
In the case of `CC(C)S(=O)(=O)N[C@@H]1COCC[C@@H]1c1ccc(-c2ccc(C#N)cc2)cc1` [Example 60, N-[(3S,4R)-4-(4′-cyanobiphenyl-4-yl)tetrahydro-2H-pyran-3-yl]propane-2-sulfonamide], the concentration giving a half-maximal response (EC50) was above 31.6 µM.
With `CC(C)S(=O)(=O)N[C@H]1COCC[C@H]1c1ccc(-c2ccccc2C#N)cc1` [Example 57, N-[(3R,4S)-4-(2′-cyanobiphenyl-4-yl)tetrahydro-2H-pyran-3-yl]propane-2-sulfonamide] the figure was 0.748 µM; with `CC(C)S(=O)(=O)N[C@H]1COCC[C@@H]1c1ccc(-c2ccccc2C#N)cc1` [Example 18, N-[(3R,4R)-4-(2′-cyanobiphenyl-4-yl)tetrahydro-2H-pyran-3-yl]propane-2-sulfonamide], 0.415 µM; with `CC(C)S(=O)(=O)N[C@@H]1CCCO[C@H]1c1ccc(-c2ccc(C#N)s2)cc1` [Example 49, N-{(2S,3R)-2-[4-(5-cyano-2-thienyl)phenyl]tetrahydro-2H-pyran-3-yl}propane-2-sulfonamide], above 31.6 µM.
With `CC(C)S(=O)(=O)N[C@@H]1CCOC[C@H]1c1ccc(-c2ccccc2C#N)cc1` [Example 32, N-[(3S,4R)-3-(2′-cyanobiphenyl-4-yl)tetrahydro-2H-pyran-4-yl]propane-2-sulfonamide] the figure was above 26.6 µM.
For `CCOc1ccccc1-c1ccc([C@H]2NC(=O)CC[C@@H]2NS(=O)(=O)C(C)C)cc1` [Example 50, N-[(2R,3S)-2-(2′-ethoxybiphenyl-4-yl)-6-oxopiperidin-3-yl]propane-2-sulfonamide], the concentration for a half-maximal effect (EC50) was 1.71 µM.
For `CC(C)S(=O)(=O)N[C@H]1CCC(=O)N[C@@H]1c1ccc(-c2ccccc2)cc1` [Example 11, N-[(2R,3S)-2-biphenyl-4-yl-6-oxopiperidin-3-yl]propane-2-sulfonamide] the value was above 31.6 µM.
